According to EP4711365A1 (Shanghai Hansoh Biomedical Co., Ltd., priority 2023, dated 2024):
pIC50: −log10 of the molar value.

System: Groα secretion by HT-29 cells
Assay: Inhibition of Groα secretion by HT-29 cells stimulated with IL-17A (ELISA)
Type: cell-based, Human
Details: IL-17A 30 ng/ml, Groα in supernatant
Protocol: Test example 2 Assay for inhibitory effect of compounds of the present invention against Groα secretion by HT-29 cells
Experimental objective: to measure the inhibitory effect of the compounds against Groα secretion by HT-29 cells, thereby evaluating the inhibition of the compounds on IL-17A pathway.
Experimental method: A cell suspension at 50,000 cells/ml was prepared, and 200 µl of the cell suspension was added to each well of a 96-well plate, i.e., 10,000 cells/well. The plate was cultured overnight. In the 96-well V-bottom plate, 5 mM compound solution was serially diluted 3-fold using DMSO, and the compound from each well was diluted 100-fold using a complete culture medium. IL-17A protein (R&D, #BT7955-025/CF) with a stock concentration of 100 µg/ml was diluted 333.33-fold using a complete culture medium. The compound and IL-17A were mixed at a volume ratio of 1:1 and incubated at 37°C for 30 minutes. 50 µl of a mixture of the compound and IL-17A was added to cell wells, and the final concentration of IL-17A protein was 30 ng/ml.
The mixture was incubated in a 37°C, 5% CO2 cell culture incubator for 48 hours. The concentration of Groα in the supernatant was determined by ELISA method using Human Groα Valukin Elisa kit (Biotechne, # VAL139), and the absorbance intensity at 450 nm was measured using a microplate reader (PE, EnVision2105). Data were analysed using GraphPad Prism 8.3.0.
Experimental data processing method: Data were analysed using GraphPad Prism 8.3.0.
Inhibition rate% = [(average value of positive control wells - value of sample wells)/(average value of positive control wells - average value of negative control wells)] × 100%, where the sample wells are wells containing cells plus compounds at different concentration gradients, the positive control wells are wells containing cells plus IL-17A, and the negative control wells are wells containing culture medium plus IL-17A.
Curve fitting: The IC50 value was obtained by curve fitting based on the inhibition rate (%) at each concentration using the log(inhibitor) vs. responseVariable slope (four parameters) in GraphPad Prism 6.0, and the calculation equation was Y = Bottom + (Top-Bottom)/(1+10^((LogIC50-X)*HillSlope)).

Row | Structure (SMILES) | pIC50 (Homo sapiens, HT-29, 48 h) | other results
1 | [2H]C1([2H])NC(=O)N([C@H](COC)c2cnc(NC(=O)[C@@H](NC(=O)c3ccnn3C(C)C)C3CCC(F)(F)CC3)s2)C([2H])([2H])C1(F)F [Example 259, N-((S)-2-((5-((R)-1-(5,5-difluoro-2-carbonyltetrahydropyrimidin-1(2H)-yl-4,4,6,6-d4)-2-methoxyethyl)thiazol-2-yl)amino)-1-(4,4-difluorocyclohexyl)-2-carbonylethyl)-1-isopropyl-1H-pyrazole-5-carboxamide] | 8.26 | 
2 | COC[C@H](c1cnc(NC(=O)[C@@H](NC(=O)c2ccnn2C(C)C)[C@H]2CC[C@H](C)CC2)s1)N1CC(F)(F)CNC1=O [Example 327] |  | pIC50 (Homo sapiens, 48 hours): 8.60
3 | CCc1nonc1C(=O)N[C@H](C(=O)Nc1ncc(C(C2CCS(=O)(=O)CC2)n2cc(Cl)ccc2=O)s1)[C@H]1CC[C@H](C)CC1 (stereo partly drawn) [Example 540-1] | 8.10 | 
4 | COCCC(c1cnc(NC(=C=O)[C@@H](NC(=O)c2ccnn2C(C)C)C2CCCCC2)s1)N1C[C@@H](C(F)(F)F)NC1=C=O (stereo partly drawn) [Example 564, N-((1S)-1-cyclohexyl-2-((5-(3-methoxy-1-((S)-2-carbonyl-4-(trifluoromethyl)imidazolidin-1-yl)propyl)thiazol-2-yl)amino)-2-carbonylethyl)-1-isopropyl-1H-pyrazole-5-carboxamide] | 8.23 | 
5 | COC[C@H](c1cnc(NC(=O)[C@@H](NC(=O)c2ccnn2C(C)C)C2CCCCC2)s1)N1CC(F)(F)CNC1=O [Example 565] | 8.40 | 
6 | [2H]C([2H])([2H])C([2H])([2H])n1nccc1C(=O)N[C@H](C(=O)Nc1ncc([C@@H](CN2CCOCC2)n2cc(Cl)ccc2=O)s1)[C@H]1CC[C@H](C)CC1 [Example 574] | 8.30 | 
7 | [2H]C([2H])([2H])C([2H])([2H])n1nccc1C(=O)N[C@H](C(=O)Nc1ncc(C(COC)n2cc(Cl)ccc2=O)s1)[C@H]1CC[C@H](C)CC1 (stereo partly drawn) [Example 586-1] | 8.08 | 
8 | CCn1nccc1C(=O)N[C@H](C(=O)Nc1ncc([C@@H](CN2CCC(OC)CC2)n2cc(Cl)ccc2=O)s1)[C@H]1CC[C@H](C)CC1 [Example 634] | 8.60 | 
9 | CCn1nccc1C(=O)N[C@H](C(=O)Nc1ncc([C@@H](CN(C)C)n2cc(Cl)ccc2=O)s1)[C@H]1CC[C@H](C)CC1 [Example 644] | 8.42 | 
10 | CCn1nccc1C(=O)NC(C(=O)Nc1ncc(C(CN2CCC(OC)C2)N2CC(F)(F)CCC2=O)s1)C1CCC(C)CC1 (stereo not drawn) [Example 648] | 8.02 | 
11 | CCn1nccc1C(=O)NC(C(=O)Nc1ncc(C(CN2CCC(OC)C2)N2CC(F)(F)CCC2=O)s1)C1CCC(C)CC1 (stereo not drawn) [Example 650] |  | pIC50 (48 hours): 8.22
12 | CCn1nccc1C(=O)N[C@H](C(=O)Nc1ncc([C@@H](CN2CCC(C(=O)O)CC2)n2cc(Cl)ccc2=O)s1)[C@H]1CC[C@H](C)CC1 [Example 663] | 8.80 | 
13 | CCn1nccc1C(=O)N[C@H](C(=O)Nc1ncc([C@@H](COC)n2cc(Cl)ccc2=O)s1)[C@H]1CC[C@H](C)CC1 [Example 689] | 8.28 | 
14 | C[C@H]1CC[C@H]([C@H](NC(=O)C2(F)CC2)C(=O)Nc2ncc([C@@H](CN3CC4CCC(C3)O4)N3CC(F)(F)CNC3=O)s2)CC1 [Example 743] |  | pIC50 (Homo sapiens, 48 hours): 8.22
15 | C[C@H]1CC[C@H]([C@H](NC(=O)C2(F)CC2)C(=O)Nc2ncc([C@@H](CN3CCC(CF)CC3)N3CC(F)(F)CNC3=O)s2)CC1 [Example 767] | 8.15 | 
16 | [2H]C([2H])([2H])OC1CCN(C[C@H](c2cnc(NC(=O)[C@@H](NC(=O)C3(F)CC3)[C@H]3CC[C@H](C)CC3)s2)N2CC(F)(F)CNC2=O)CC1 [Example 780] |  | pIC50 (Homo sapiens, 48 hours): 8.00
17 | [2H]C([2H])([2H])C([2H])([2H])n1nccc1C(=O)N[C@H](C(=O)Nc1ncc([C@@H](CN2CCO[C@H](CF)C2)N2CC(F)(F)CCC2=O)s1)[C@H]1CC[C@H](C)CC1 [Example 820, N-((S)-2-((5-((R)-1-(5,5-difluoro-2-oxopiperidin-1-yl)-2-((S)-2-(fluoromethyl)morpholino)ethyl)thiazol-2-yl)amino)-1-((1r,4S)-4-methylcyclohexyl)-2-oxoethyl)-1-(ethyl-d5)-1H-pyrazole-5-carboxamide] | 8.52 | 
18 | [2H]C([2H])([2H])C([2H])([2H])n1nccc1C(=O)N[C@H](C(=O)Nc1ncc([C@@H](CN2C[C@H](C)OC[C@@H]2C)N2CC(F)(F)CCC2=O)s1)[C@H]1CC[C@H](C)CC1 [Example 860, N-((S)-2-((5-((R)-1-(5,5-difluoro-2-oxopiperidin-1-yl)-2-((2S,5S)-2,5-dimethylmorpholino)ethyl)thiazol-2-yl)amino)-1-((1r,4S)-4-methylcyclohexyl)-2-oxoethyl)-1-(ethyl-d5)-1H-pyrazole-5-carboxamide] | 8.70 | 

Row | Structure (SMILES) | pIC50 (Homo sapiens, HT-29, 48 h) | other results
19 | [2H]C([2H])([2H])C([2H])([2H])n1nccc1C(=O)N[C@H](C(=O)Nc1ncc([C@@H](CN2C[C@@H](C)OC[C@H]2C)N2CC(F)(F)CCC2=O)s1)[C@H]1CC[C@H](C)CC1 [Example 862, N-((S)-2-((5-((R)-1-(5,5-difluoro-2-oxopiperidin-1-yl)-2-((2R,5R)-2,5-dimethylmorpholino)ethyl)thiazol-2-yl)amino)-1-((1r,4S)-4-methylcyclohexyl)-2-oxoethyl)-1-(ethyl-d5)-1H-pyrazole-5-carboxamide] | 8.57 | 
20 | CCn1nccc1C(=O)N[C@H](C(=O)Nc1ncc([C@@H](CN2C[C@@H](C)OC[C@H]2C)N2CC(F)(F)CCC2=O)s1)[C@H]1CC[C@H](C)CC1 [Example 863] | 8.49 | 
21 | [2H]C([2H])([2H])C([2H])([2H])n1nccc1C(=O)N[C@H](C(=O)Nc1ncc([C@@H](CN2CCC(F)(F)CC2)N2CC(F)(F)CCC2=O)s1)[C@H]1CC[C@H](C)CC1 [Example 913] | 8.46 | 
22 | [2H]C([2H])([2H])C([2H])([2H])n1nccc1C(=O)N[C@H](C(=O)Nc1ncc([C@@H](CN2CCC(F)CC2)N2CC(F)(F)CCC2=O)s1)[C@H]1CC[C@H](C)CC1 [Example 919] | 8.40 | 
23 | [2H]C([2H])([2H])C([2H])([2H])n1nccc1C(=O)NC(C(=O)Nc1ncc(C(CN2CCC3C(C2)C3(F)F)N2CC(F)(F)CCC2=O)s1)C1CCC(C)CC1 (stereo not drawn) [Example 970] | 8.40 | 
24 | [2H]C([2H])([2H])C([2H])([2H])n1nccc1C(=O)N[C@H](C(=O)Nc1ncc([C@@H](CN2CCC(=C(F)F)CC2)N2CC(F)(F)CCC2=O)s1)[C@H]1CC[C@H](C)CC1 [Example 980] | 8.30 | 
25 | [2H]C([2H])([2H])OC1CCN(C[C@H](c2cnc(NC(=O)[C@@H](NC(=O)c3ccnn3C([2H])([2H])C([2H])([2H])[2H])[C@H]3CC[C@H](C)CC3)s2)N2CC(F)(F)CCC2=O)CC1 [Example 986] | 8.05 | 
26 | [2H]C([2H])([2H])OC1(C)CCN(C[C@H](c2cnc(NC(=O)[C@@H](NC(=O)c3ccnn3C([2H])([2H])C([2H])([2H])[2H])[C@H]3CC[C@H](C)CC3)s2)N2CC(F)(F)CCC2=O)CC1 [Example 988] | 8.06 | 
27 | C[C@H]1CC[C@H]([C@H](NC(=O)C2(F)CC2)C(=O)Nc2ncc([C@@H](CN3CCC4(CC3)CC4(F)F)N3CC(F)(F)CNC3=O)s2)CC1 [Example 1016] | 8.70 | 
28 | CCn1nccc1C(=O)N[C@H](C(=O)Nc1ncc([C@@H](CN2CCC3(CC2)OCCO3)n2cc(Cl)ccc2=O)s1)[C@H]1CC[C@H](C)CC1 [Example 1020] | 8.60 | 
29 | CCn1nccc1C(=O)N[C@H](C(=O)Nc1ncc([C@@H](CN2CCCCC2)N2CC(F)(F)CCC2=O)s1)[C@H]1CC[C@H](C)CC1 [Example 1021] | 8.07 | 
30 | CCn1nccc1C(=O)N[C@H](C(=O)Nc1ncc([C@@H](CN2CCCC2)N2CC(F)(F)CCC2=O)s1)[C@H]1CC[C@H](C)CC1 [Example 1022] | 8.00 | 
31 | CCn1nccc1C(=O)N[C@H](C(=O)Nc1ncc([C@@H](CN(C)CCOC)N2CC(F)(F)CCC2=O)s1)[C@H]1CC[C@H](C)CC1 [Example 1023] | 8.00 | 
32 | COCCN(C)C[C@H](c1cnc(NC(=O)[C@@H](NC(=O)c2ccnn2C)[C@H]2CC[C@H](C)CC2)s1)N1CC(F)(F)CCC1=O [Example 1024] | 8.15 | 
33 | [2H]C([2H])([2H])n1nccc1C(=O)N[C@H](C(=O)Nc1ncc([C@@H](CN2CCOCC2)N2CC(F)(F)CCC2=O)s1)[C@H]1CC[C@H](C)CC1 [Example 1030] | 8.15 | 
34 | [2H]C([2H])([2H])n1nccc1C(=O)N[C@H](C(=O)Nc1ncc([C@@H](CN2CCC3(COC3)C2)N2CC(F)(F)CCC2=O)s1)[C@H]1CC[C@H](C)CC1 [Example 1032] | 8.10 | 
35 | [2H]C([2H])([2H])C([2H])([2H])n1nccc1C(=O)N[C@H](C(=O)Nc1ncc([C@@H](CN2CCC3(CCOC3)CC2)N2CC(F)(F)CCC2=O)s1)[C@H]1CC[C@H](C)CC1 [Example 1034] | 8.22 | 
36 | CCn1nccc1C(=O)N[C@H](C(=O)Nc1ncc([C@@H](CN2CCC(COC)CC2)N2CC(F)(F)CCC2=O)s1)[C@H]1CC[C@H](C)CC1 [Example 1036] | 8.22 | 
